The source of these data is patent US8138170B2, “Immunosuppressive Ningalin compounds” (Memorial Sloan-Kettering Cancer Center, priority 2004, dated 2012).

Several values for one entry are separate records, joined by “and”; a condition that tells them apart may be missing. Equal values may be shown once. Read-outs that look alike come from different tables or passages of the source.

The nature of series [1]: Cytotoxicity measured by cell proliferation inhibition. It counts as cell-based.
A further series deals with human lymphocytes. The experiment in a line: Inhibition of PHA-stimulated lymphocyte proliferation ([3H]thymidine incorporation). In kind it is cell-based. Conditions: for IC50: read-out: Immunosuppressive Effect (IC50 in μM) [B]. Background: Uptake of a labelled nucleoside into DNA is a usual measure of proliferation.
Series [2] deals with carrageenan-induced paw edema. The experiment in a line: Carrageenan-induced paw edema. It counts as in vivo, B6D2F1 mice. Conditions: for Pedis Area: individual mice 1-4; for Pedis Area, Mean: mean of 4 mice. Here is the method:
Carrageene (1%, 30 μl) was injected i.m. into the pedis of B6D2F1 mice (4 mice/group) to induced edemic inflammation at 0 hours. N3, N5 (i.p. injection) or oral administration of aspirin 500 mg/kg, or topical application of hydrocortisone cream (1%) or Lidex cream (0.05%) to the pedis skins were given at −1, 6, 12 and 24 hours. The control mice received dimethylsulfoxide (the vehicle of ningalins). The pedis areas (in mm^2) were measured at 0, 3, 6, 12, 24, 36 and 48 hours.

Series [3] has as its system P388/DX leukemic cells resistant to Adriamycin. As to conditions: for Log cell kill: calculated assuming doubling time 0.4 day.
In a further series the test system is C57BL/6 heart allografts. The series can be described thus: Heterotopic heart transplantation in mice. It counts as in vivo, Balb/c mice. How it is done: Heterotopic heart transplantation was performed in rats and mice. In brief, heart transplantation was performed by previously described modified method. Hearts harvested from donors were perfused with chilled saline and immediately transplanted to recipients under full anesthesia. Suture 10-0 in rats and 12-0 in mice (Ethicon; Somerville, N.J.) was used to perform anastomosis of aorta to aorta and pulmonary artery to vena cava. Heartbeat was evaluated daily and the day of complete cessation was considered rejection. Animals that died within three days after transplantation were excluded from the analysis (less than 5%).
Mice were also transplanted with heart allografts. In particular, untreated Balb/c (H-2^d) recipients rejected C57BL/6 (H-2^b) heart allografts at a MST of 7.8±0.84 days (n=5). Treatment with 40 mg/kg N5, QDx7, extended heart allograft survival to 13.33±2.52 days, which increased life span 71% (n=3; p<0.03).
Mice heart allografts were treated with 20 mg/kg of N3, QDx7, i.p. In particular, untreated Balb/c (H-2^d) recipients rejected C57BL/6 ([…]) heart allografts at a MST of […] days (n=5). Treatment with 20 mg/kg of N3 (i.e., one-half of dose of N5) extended heart allograft survival to 18.75±3.86 days (n=4; p<0.0005), an increase in lifespan of 140%.

The subject of the next series is P388/DX leukemic cells. It counts as in vivo, B6D2F1 mice. Conditions: for Log cell kill: calculated assuming doubling time 0.4 day.
[4] abbreviates: PHA-stimulated human lymphocyte proliferation.
The mark [5] stands for this setting: 0 hr, aspirin 500 mg/kg oral, N3 100 mg/kg i.p., N5 50 mg/kg i.p., hydrocortisone cream 1%, Lidex cream 0.05% topical, given at −1, 6, 12, 24 hours.
The mark [6] stands for this setting: Adriamycin 3.0 mg/kg iv alone or with N3 20 mg/kg ip, QD × 3.
Setting [7] is: N3 20 mg/kg ip and/or Adriamycin 1.5 mg/kg iv, QD × 3.
The mark [8] stands for this setting: N3 20 mg/kg ip and/or Taxol 5.0 mg/kg iv, QD × 3.
The mark [9] stands for this setting: Taxol 10.0 mg/kg iv alone or with N3 20 mg/kg ip, QD × 3.

Regarding `COC(=O)c1c(-c2cc(OC)c(OC)c(OC)c2)c(-c2cc(OC)c(OC)c(OC)c2)c(C(=O)OC)n1CCc1ccc(OC)cc1` [Ningalin N6, 1-[2-(4-Methoxy-phenyl)-ethyl]-3,4-bis-(3,4,5-trimethoxy-phenyl)-1H-pyrrole-2,5-dicarboxylic acid dimethyl ester], the IC50 came out at 70.2 ± 20.5 µM in series [1] and 1.61 ± 0.31 µM in the series with human lymphocytes (setting [4]). Moreover, the “Selectivity Ratio [A]/[B]” value in the series with human lymphocytes (cytotoxicity IC50 / immunosuppressive IC50) was 43.6.

As for `CC(=O)Oc1ccccc1C(=O)O` [Aspirin, aspirin, reference compound], the “Pedis Area” value in series [2] (setting [5]) was 100 mm^2; in series [2] (3 hr, doses as E35) it was 142.2 mm^2 and 130.5 mm^2 and 122 mm^2 and 134.5 mm^2; in series [2] (6 hr, doses as E35), 151.4 mm^2 and 139.8 mm^2 and 124.6 mm^2 and 149.6 mm^2; in series [2] (12 hr, doses as E35), 138.5 mm^2 and 135.6 mm^2 and 120.3 mm^2 and 138.9 mm^2; in series [2] (24 hr, doses as E35) it was 116.5 mm^2 and 116.9 mm^2 and 108.5 mm^2 and 118.6 mm^2; in series [2] (36 hr, doses as E35), 114.7 mm^2 and 107.6 mm^2 and 94.1 mm^2 and 109.7 mm^2. The “Pedis Area” value in series [2] (48 hr, doses as E35) is 118.3 mm^2 and 105.9 mm^2 and 92.4 mm^2 and 111.5 mm^2. Further, the “Pedis Area, Mean” value was 100 mm^2 in series [2] (0 hr, doses as E35); 132.3 mm^2 in series [2] (3 hr, doses as E35); 141.4 mm^2 in series [2] (6 hr, doses as E35); 133.3 mm^2 in series [2] (12 hr, doses as E35); 115.1 mm^2 in series [2] (24 hr, doses as E35); 106.5 mm^2 in series [2] (36 hr, doses as E35). The “Pedis Area, Mean” value in series [2] (48 hr, doses as E35) stood at 107 mm^2.

Regarding `COc1cccc2c1C(=O)c1c(O)c3c(c(O)c1C2=O)C[C@@](O)(C(=O)CO)C[C@@H]3O[C@H]1C[C@H](N)[C@H](O)[C@H](C)O1` [Adriamycin, Doxorubicin], the Log cell kill in series [3] (Adriamycin 1.5 mg/kg iv alone or with N3 20 mg/kg ip) is 0.56. Further, in series [3] (setting [6]), the “Lifespan increase (%)” value is recorded as “+15%”, the “Lifespan increase (days)” value is listed as “+1.58 days” and the “Median survival time (days ± SD)” value was determined as 12.08 ± 1.81 days. Also, in series [3] (Adriamycin 3.0 mg/kg iv alone or with N3 20 mg/kg ip), the Log cell kill is reported as 1.19. Further, in series [3] (setting [7]), the “Lifespan increase (%)” value is reported as “+7%”, the “Lifespan increase (days)” value was “+0.75 days” and the “Median survival time (days ± SD)” value turned out to be 11.25 ± 1.75 days.

On to `COc1ccc(CCN(C)CCCC(C#N)(c2ccc(OC)c(OC)c2)C(C)C)cc1OC` (centres unmarked) [Verapamil, reference compound], for which the concentration for half-maximal inhibition (IC50) with human lymphocytes (Homo sapiens, Lymphocyte) turned out to be 6.9 ± 1.01 µM.

On to `COc1ccc(CCn2cc(-c3ccc(OC)c(OC)c3)c3c4cc(OC)c(OC)cc4oc(=O)c32)cc1OC` [Ningalin N3, 1-(3,4-Dimethoxy-phenyl)-3-[2-(3,4-dimethoxy-phenyl)-ethyl]-7,8-dimethoxy-3H-5-oxa-3-aza-cyclopenta[α]naphthalen-4-one], for which the “MST ± SD days (heart allograft survival)” value in the series on C57BL/6 heart allografts (B6 heart to Balb/c, N3 20 mg/kg QDx7 i.p., 20 mg/kg) came to 18.75±3.86 days. Further, the increase in lifespan in the series with C57BL/6 heart allografts (heart allograft, N3 20 mg/kg QDx7 i.p., vs untreated) was 140%. In addition, the “Survival days (individual animals)” value with C57BL/6 heart allografts (heart, N3 20 mg/kg, 20 mg/kg) was 19 days and 24 days and 15 days and 17 days. The “lifespan of tumor bearing mice compared to saline treated controls” value in the series with P388/DX leukemic cells (N3 20 mg/kg i.p. daily for three days) was “decreased the lifespan”. Moreover, the “Lifespan increase” value with P388/DX leukemic cells (setting [8]) was -1.19 days; in series [3] (setting [7]), -1.25 days. The “Lifespan increase (%)” value in the series with P388/DX leukemic cells (setting [8]) is −13%; in series [3] (setting [7]), −12%. The entries for the “Median survival time (days ± SD)” value (in the series with P388/DX leukemic cells (setting [8]); in series [3] (setting [7])) were 8.00 ± 0.54 days and 9.25 ± 0.66 days, respectively. Also, in series [3] (N3 alone 20 mg/kg i.p. daily for three days, vs control), the decreased the lifespan was 12%. In addition, the IC50 was 51.3 ± 18 µM in series [1] and 0.51 ± 0.19 µM in the series on human lymphocytes (setting [4]). Also, the “Pedis Area” value in series [2] (setting [5]) is 100 mm^2; in series [2] (3 hr, doses as E35), 134.4 mm^2 and 142.7 mm^2 and 141.7 mm^2 and 139.5 mm^2; in series [2] (6 hr, doses as E35) it was 140.6 mm^2 and 159.2 mm^2 and 153.4 mm^2 and 151.8 mm^2; in series [2] (12 hr, doses as E35) it was 140.6 mm^2 and 150.5 mm^2 and 139.8 mm^2 and 135.1 mm^2; in series [2] (24 hr, doses as E35) it was 134.4 mm^2 and 142.7 mm^2 and 136.9 mm^2 and 128.1 mm^2; in series [2] (36 hr, doses as E35) it was 131.1 mm^2 and 136.9 mm^2 and 121.9 mm^2 and 127.9 mm^2. Moreover, in series [2] (48 hr, doses as E35), the “Pedis Area” value is 131.1 mm^2 and 136.9 mm^2 and 115.8 mm^2 and 126 mm^2. Further, the “Pedis Area, Mean” value in series [2] (0 hr, doses as E35) stood at 100 mm^2; in series [2] (3 hr, doses as E35) it was 139.6 mm^2; in series [2] (6 hr, doses as E35) it was 151.3 mm^2; in series [2] (12 hr, doses as E35), 141.5 mm^2; in series [2] (24 hr, doses as E35) it was 135.5 mm^2; in series [2] (36 hr, doses as E35), 129.5 mm^2. Besides, the “Pedis Area, Mean” value in series [2] (48 hr, doses as E35) was determined as 127.5 mm^2. For the same molecule, in series [2] (N5 50 mg/kg i.p., N3 100 mg/kg i.p., all drugs: at 12-48 hours), the “anti-inflammatory effect (FIG. 3)” value is recorded as “produced an anti-inflammatory effect”.

For the molecule `CC(=O)O[C@H]1C(=O)[C@@]2(C)[C@H]([C@H](OC(=O)c3ccccc3)[C@]3(O)C[C@H](OC(=O)[C@H](O)[C@@H](NC(=O)c4ccccc4)c4ccccc4)C(C)=C1C3(C)C)[C@]1(OC(C)=O)CO[C@@H]1C[C@@H]2O` [Taxol, paclitaxel], the “Lifespan increase (%)” value with P388/DX leukemic cells (setting [8]) and in the series on P388/DX leukemic cells (setting [9]) was “+4%” each time. In addition, the “Lifespan increase (days)” value in the series on P388/DX leukemic cells (setting [8]) and in the series on P388/DX leukemic cells (setting [9]) was “+0.37 days” throughout. The “Median survival time (days ± SD)” value in the series with P388/DX leukemic cells (setting [8]) was determined as 9.56 ± 0.62 days; in the series on P388/DX leukemic cells (setting [9]), 9.56 ± 0.88 days. Also, the Log cell kill in the series with P388/DX leukemic cells (Taxol 5.0 mg/kg iv alone or with N3 20 mg/kg ip) and with P388/DX leukemic cells (Taxol 10.0 mg/kg iv alone or with N3 20 mg/kg ip) was 0.28 each time.

The term IC50 denotes the midpoint of a concentration-inhibition curve.
